Target: T1, ACVR2B (Homo sapiens, UniProt Q13705)
T1 construct: purchased Thermo Fisher Scientific (Life Technologies) SelectScreen
Test: SelectScreen LanthaScreen
Type: binding
Conditions: 1 µM
Method in brief: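 Percent values come from Thermo SelectScreen profiling of NU5455, combining activity and binding assays. CSF1R was run in Z'LYTE format at Km app ATP, and CAMK1 in Adapta format with ATP listed at 10.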

T1 sequence (Q13705 19-512): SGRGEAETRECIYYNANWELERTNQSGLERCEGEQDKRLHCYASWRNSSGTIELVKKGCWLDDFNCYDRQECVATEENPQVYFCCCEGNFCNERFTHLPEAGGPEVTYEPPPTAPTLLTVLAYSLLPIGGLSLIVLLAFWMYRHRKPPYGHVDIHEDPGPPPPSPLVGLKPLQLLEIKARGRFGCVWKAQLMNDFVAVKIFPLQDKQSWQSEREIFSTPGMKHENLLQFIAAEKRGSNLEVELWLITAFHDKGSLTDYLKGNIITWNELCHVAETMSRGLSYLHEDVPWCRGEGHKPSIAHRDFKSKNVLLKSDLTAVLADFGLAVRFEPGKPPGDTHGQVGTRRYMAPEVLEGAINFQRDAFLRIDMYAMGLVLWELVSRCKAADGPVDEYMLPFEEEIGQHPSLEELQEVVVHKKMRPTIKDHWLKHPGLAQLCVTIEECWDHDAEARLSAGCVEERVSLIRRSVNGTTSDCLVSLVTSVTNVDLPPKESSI

CN(C(=O)CN1CCOCC1)c1ccc2sc3c(-c4cccc5c(=O)cc(N6CC7CCC(C6)O7)oc45)cccc3c2c1 [NU5455]
% displacement: 15.7%
